# Data from ChEMBL document CHEMBL5344478, “Cytochrome bd oxidase: an emerging anti-tubercular drug target” (RSC Med Chem, 2024).
# pIC50: −log10 of the molar value.
# Key:
# [1] = Inhibition of Mycobacterium tuberculosis H37Rv cytochrome bd oxidase with ATP synthase overexpression inverted membrane vesicles; assay type: cell membranes, Membrane vesicle
# [2] = system: Mycobacterium tuberculosis; assay: Antimycobacterial activity against Mycobacterium tuberculosis Rv1305 harbouring atpE gene; assay type: functional
# [3] = system: Mycobacterium tuberculosis; assay: Antimycobacterial activity against clinical isolate multi drug resistant Mycobacterium tuberculosis H37Rv assessed as inhibition of bacterial growth; assay type: functional, organism-based
structure (smiles),measurement,setting,value
c1ccc(CCNc2ncnc3ccccc23)cc1,pIC50,[1],4.57
NC(=O)NC(=O)c1nc(-c2cc3ccccc3o2)c(N)nc1N,MIC,[2],5 µM
CC(C)(C)c1ccc(CCNc2ncnc3ccsc23)cc1,pIC50,[3],4.72
CCc1nc2ccc(Cl)cn2c1C(=O)NCc1ccc(N2CCC(c3ccc(OC(F)(F)F)cc3)CC2)cc1 [TELACEBEC],MIC,[3],≤ 1 µM
